# Source: patent US20240390434A1, “PROBIOTIC ENHANCERS AND USES THEREOF” (Blis Technologies Limited, priority 2021, published 2024)
# Columns and labels:
# Assay type in all cases: cell-based
# ENTR indicator strains = assay: Dose response deferred antagonism assay, producer K12: average over indicators
# Procedure: 1-2 producer strain colonies were transferred from a stock plate into 900 μL of suspension solution using a fresh cotton swab. Following this, suspensions were vortexed, and a sample was inoculated onto solid culture media using a fresh cotton swab. The inoculation was a streak that runs diametrically across the agar plate in a 1.5 cm wide strip. The plate was then incubated. Following incubation all visible colonies were removed by swabbing them from the agar surface. The plates were then treated with chloroform by dispensing 2 ml of chloroform onto 4 cm×4 cm piece of cloth and sealing the inverted agar plate on top for 30 minutes. The plates were then air dried for 30 minutes following chloroforming. 1-2 indicator strain colonies were then transferred from a stock plate into complementary suspension solution. […]
# Each indicator streak was prepared with fresh a suspension containing cells from a corresponding stock plate containing the indicator strain of interest. […] Results were measured by qualitatively reviewing the subsequent (if any) sizes of the zones of inhibition (ZOI) of indicator strain colony growth. […]
# CABCa agar plates containing various concentrations of saccharide were prepared according to the methods described in Method 1. […] Results were recorded by measuring the size of the zone of inhibition (ZOI) in mm. […]
# H. influenzae TW5 = assay: Dose response deferred antagonism assay, producer K12
# Procedure: (§1) 1-2 producer strain colonies were transferred from a stock plate into 900 μL of suspension solution using a fresh cotton swab. Following this, suspensions were vortexed, and a sample was inoculated onto solid culture media using a fresh cotton swab. The inoculation was a streak that runs diametrically across the agar plate in a 1.5 cm wide strip. The plate was then incubated. Following incubation all visible colonies were removed by swabbing them from the agar surface. The plates were then treated with chloroform by dispensing 2 ml of chloroform onto 4 cm×4 cm piece of cloth and sealing the inverted agar plate on top for 30 minutes. The plates were then air dried for 30 minutes following chloroforming. 1-2 indicator strain colonies were then transferred from a stock plate into complementary suspension solution. The suspensions were then vortexed, and a sample was inoculated onto the same agar surface. These samples were streaked in a perpendicular direction to the initial producer streak.
# (§2) Each indicator streak was prepared with fresh a suspension containing cells from a corresponding stock plate containing the indicator strain of interest. Indicator strains suspension samples were transferred using a fresh cotton swab. Results were measured by qualitatively reviewing the subsequent (if any) sizes of the zones of inhibition (ZOI) of indicator strain colony growth. A positive result is when there is a distinctive reduction or complete inhibition of indicator colony growth on the culture medium.
# (§3) CABCa agar plates containing various concentrations of saccharide were prepared according to the methods described in Method 1. Producer strains were transferred from stock agar plates into 900 μL THB using a fresh cotton swab. A plastic spread plater was cut to approximately 1.2 cm width and then dipped into ethanol and left to air dry to ensure sterility. A 100 μL sample of the producer strain suspension was then dispensed onto the agar surface in a straight line running diametrically across the agar surface in (approximately) 20 μL spots. The spots were spaced approximately 1.5 cm apart from each other. The plastic spreader was then used to evenly distribute the spots across the agar surface in a 1.5 cm wide strip. This step was taken to ensure an even producer streak was inoculated onto the agar surface and provided an approximate measure of the initial inoculum concentration. Separate plastic spreaders were used for samples containing different producer strains. The samples were left to soak into the agar surface until there was no visible liquid remaining on the agar surface (approximately 20 minutes). Following producer streak preparations, the deferred antagonism assay protocol was followed as per Method 2. Results were recorded by measuring the size of the zone of inhibition (ZOI) in mm.
# (§4) The results presented in FIG. 1 and FIG. 2 illustrate the change in ear, nose, and throat (ENT) microorganism indicator strain zone of inhibition sizes. When K12 was cultured in the presence of various concentrations of galactose the ZOI sizes for several of the ENTR indicator strains increased markedly from the control condition (FIG. 1). M. catarrhalis TW1 and TW2 display similar changes in the ZOI sizes across the various concentrations of galactose. The change in TW1 ZOI size peaks at 1.5% galactose(w/v) (12 mm) then decreases at 2.0% galactose (w/v), whereas the change of TW2 ZOI size peaks at 2.0% galactose (w/v) (11 mm). The change in L. lactis T-21 ZOI sizes trend upwards relative to the concentration of galactose present in the culture medium.
# P. aeruginosa I2 = assay: Dose response deferred antagonism assay, producer M18; conditions: 1.5% (w/v) raffinose
# [1] = system: microorganisms associated with skin, dental, ENTR; assay: Dose response assay, raffinose vs equimolar trimix and individual saccharides, K12; conditions: equimolar concentration
# Procedure: as §3, with “mm. […]” for “mm.”
# [2] = system: S. saprophyticus ATCC 15305; assay: Deferred antagonism assay, producer S. salivarius M18
# Procedure: as §1, §2, §3
# (§5) A dose response assay was carried out according to method 3 above, except a 1.2 cm streak was used. For the individual saccharide testing the pH of the producer streak was adjusted after the growth of producer to change the acidic conditions.
# (§6) A deferred antagonism assay was conducted using K12 or M18 raw ingredient suspended in Todd Hewitt broth (THB). This was spread as a 1.2 cm streak containing approximately 1-2×10^6 cfu down the middle of a CABCa control or CABCa galactose supplemented test plate. After 18 hrs growth at 37° C. with 5% CO2, bacterial growth was removed, and the pH of the agar in the initial streak was measured and adjusted to a pH of 6.5-7.5 using 0.5M sodium carbonate pH11 before sterilizing the agar surface using chloroform vapor. Bacterial test strains were suspended in i-THB before being swabbed across the plates perpendicular to the initial streak. Plates were incubated for a further 18 hrs incubation at 37° C. with 5% CO2 before measuring (mm) any zones of inhibition for each test strain, […]
# S. constellatus T29 = assay: as above
# Procedure: as §1, §2, §3, §5, §6
# S. sobrinus OMZ176 [3] = assay: as above; conditions: Streptococcus sobrinus, read-out: Size of zone inhibition normalised to control, S. sobrinus OMZ176
# Procedure: as §1, §2
# (§7) Method: CABCa agar plates were prepared with or without 0.5, 1.25, 1.7, 2.5, 3.3 and 5% galactose by the addition of 0.5% (w/v) calcium carbonate to solid CAB agar in bottles and then melted by autoclaving at 110° C. for 10 mins. Once cooled, filter sterilised solutions of the saccharides or distilled water were added and mixed and then 20 ml pipetted into petri dishes.
# as §6
# S. pyogenes M76 = assay: Dose response deferred antagonism assay, producer M18; conditions: 1.5% (w/v) galactose, largest
# S. pyogenes M57 = assay: Dose response deferred antagonism assay, producer K12; conditions: 0.1%, 1.0%, and 1.5% (w/v) galactose
# Procedure: as §1, §2, §3, §4
# S. sobrinus OMZ176 [4] = assay: Deferred antagonism assay, producer S. salivarius K12; conditions: Streptococcus sobrinus, read-out: Size of zone inhibition normalised to control, S. sobrinus OMZ176
# Procedure: as §1, §2, §7, §6
# [5] = 1.25, 2.5, 5% w/v raffinose added
# [6] = M18, Raffinose 1.7% wt, pH adjusted
# [7] = M18, Raffinose 2.5% wt, pH adjusted
# [8] = M18, Raffinose 3.3% wt, pH adjusted
# [9] = M18, Raffinose 5% wt, pH adjusted
# [10] = M18, Raffinose 10% wt, pH adjusted
structure (smiles),measurement,setting,value
"OC[C@H]1O[C@H](OC[C@H]2O[C@H](O[C@]3(CO)O[C@H](CO)[C@@H](O)[C@@H]3O)[C@H](O)[C@@H](O)[C@@H]2O)[C@H](O)[C@@H](O)[C@H]1O [Raffinose, D-(+) Raffinose pentahydrate]",Average ZOI change,ENTR indicator strains; 1.5% raffinose,10.33 mm
same,change in ZOI size for H. influenzae TW5,"H. influenzae TW5; 1.5% raffinose (w/v), peak",12 mm
same,TW5 ZOI size change,H. influenzae TW5; 2% raffinose (w/v),0 mm
same,P. aeruginosa I2 ZOI,P. aeruginosa I2,10 mm
same,inhibitory activity of K12 compared to equivalent composition of the three monomeric saccharides,[1],better inhibitory activity
same,sensitivity of S. saprophyticus ATCC 15305 to M18,[2]; [5],sensitive
same,Zone of inhibition S. saprophyticus ATCC 15305,"[2]; M18, Raffinose 1.7% wt",16 mm
same,Zone of inhibition S. saprophyticus ATCC 15305,[2]; [6],15 mm
same,Zone of inhibition S. saprophyticus ATCC 15305,"[2]; M18, Raffinose 2.5% wt",17 mm
same,Zone of inhibition S. saprophyticus ATCC 15305,[2]; [7],15 mm
same,Zone of inhibition S. saprophyticus ATCC 15305,"[2]; M18, Raffinose 3.3% wt",17 mm
same,Zone of inhibition S. saprophyticus ATCC 15305,[2]; [8],14 mm
same,Zone of inhibition S. saprophyticus ATCC 15305,"[2]; M18, Raffinose 5% wt",14 mm
same,Zone of inhibition S. saprophyticus ATCC 15305,[2]; [9],12 mm
same,Zone of inhibition S. saprophyticus ATCC 15305,"[2]; M18, Raffinose 10% wt",0 mm
same,Zone of inhibition S. saprophyticus ATCC 15305,[2]; [10],0 mm
same,sensitivity of S. constellatus T-29 to M18,S. constellatus T29; [5],sensitive
same,Zone of inhibition S. constellatus T29,"S. constellatus T29; M18, Raffinose 1.7% wt",22 mm
same,Zone of inhibition S. constellatus T29,S. constellatus T29; [6],17 mm
same,Zone of inhibition S. constellatus T29,"S. constellatus T29; M18, Raffinose 2.5% wt",18 mm
same,Zone of inhibition S. constellatus T29,S. constellatus T29; [7],16 mm
same,Zone of inhibition S. constellatus T29,"S. constellatus T29; M18, Raffinose 3.3% wt",18 mm
same,Zone of inhibition S. constellatus T29,S. constellatus T29; [8],17 mm
same,Zone of inhibition S. constellatus T29,"S. constellatus T29; M18, Raffinose 5% wt",16 mm
same,Zone of inhibition S. constellatus T29,S. constellatus T29; [9],14 mm
same,Zone of inhibition S. constellatus T29,"S. constellatus T29; M18, Raffinose 10% wt",12 mm
same,Zone of inhibition S. constellatus T29,S. constellatus T29; [10],0 mm
"O=C[C@H](O)[C@@H](O)[C@@H](O)[C@H](O)CO [Galactose, D-galactose]",zone of inhibition at 0.5 % strength,S. sobrinus OMZ176 [3]; Galactose 0.5% w/w,0 mm
same,zone of inhibition at 1.25 % strength,S. sobrinus OMZ176 [3]; Galactose 1.25% w/w,0 mm
same,zone of inhibition at 1.7 % strength,S. sobrinus OMZ176 [3]; Galactose 1.7% w/w,0 mm
same,zone of inhibition at 2.5 % strength,S. sobrinus OMZ176 [3]; Galactose 2.5% w/w,0 mm
same,zone of inhibition at 3.3 % strength,S. sobrinus OMZ176 [3]; Galactose 3.3% w/w,0 mm
same,zone of inhibition at 5 % strength,S. sobrinus OMZ176 [3]; Galactose 5% w/w,0 mm
same,Average ZOI change,ENTR indicator strains; 2% galactose,9.5 mm
same,S. pyogenes M76 zone of inhibition,S. pyogenes M76,14 mm
same,S. pyogenes M57 ZOI sizes vs control condition,S. pyogenes M57,increase
same,zone of inhibition at 1.25 % strength,S. sobrinus OMZ176 [4]; Galactose 1.25% w/w,0 mm
same,zone of inhibition at 1.7 % strength,S. sobrinus OMZ176 [4]; Galactose 1.7% w/w,0 mm
same,zone of inhibition at 2.5 % strength,S. sobrinus OMZ176 [4]; Galactose 2.5% w/w,0 mm
same,zone of inhibition at 3.3 % strength,S. sobrinus OMZ176 [4]; Galactose 3.3% w/w,0 mm
same,zone of inhibition at 5 % strength,S. sobrinus OMZ176 [4]; Galactose 5% w/w,0 mm
same,zone of inhibition at 0.5 % strength,"[2]; Staphylococcus saprophyticus, ATCC15305, M18, Galactose 0.5% w/w, read-out: Size of zone inhibition normalised to control, S. saprophyticus ATCC 15305",5 mm
same,zone of inhibition at 1.25 % strength,"[2]; Staphylococcus saprophyticus, ATCC15305, M18, Galactose 1.25% w/w, read-out: Size of zone inhibition normalised to control, S. saprophyticus ATCC 15305",0 mm
same,zone of inhibition at 1.7 % strength,"[2]; Staphylococcus saprophyticus, ATCC15305, M18, Galactose 1.7% w/w, read-out: Size of zone inhibition normalised to control, S. saprophyticus ATCC 15305",0 mm
same,zone of inhibition at 2.5 % strength,"[2]; Staphylococcus saprophyticus, ATCC15305, M18, Galactose 2.5% w/w, read-out: Size of zone inhibition normalised to control, S. saprophyticus ATCC 15305",0 mm
same,zone of inhibition at 3.3 % strength,"[2]; Staphylococcus saprophyticus, ATCC15305, M18, Galactose 3.3% w/w, read-out: Size of zone inhibition normalised to control, S. saprophyticus ATCC 15305",0 mm
same,zone of inhibition at 5 % strength,"[2]; Staphylococcus saprophyticus, ATCC15305, M18, Galactose 5% w/w, read-out: Size of zone inhibition normalised to control, S. saprophyticus ATCC 15305",0 mm
same,zone of inhibition at 0.5 % strength,"S. constellatus T29; Streptococcus constellatus, T29, M18, Galactose 0.5% w/w, read-out: Size of zone inhibition normalised to control, S. constellatus T29",0 mm
same,zone of inhibition at 1.25 % strength,"S. constellatus T29; Streptococcus constellatus, T29, M18, Galactose 1.25% w/w, read-out: Size of zone inhibition normalised to control, S. constellatus T29",8 mm
same,zone of inhibition at 1.7 % strength,"S. constellatus T29; Streptococcus constellatus, T29, M18, Galactose 1.7% w/w, read-out: Size of zone inhibition normalised to control, S. constellatus T29",0 mm
same,zone of inhibition at 2.5 % strength,"S. constellatus T29; Streptococcus constellatus, T29, M18, Galactose 2.5% w/w, read-out: Size of zone inhibition normalised to control, S. constellatus T29",16 mm
same,zone of inhibition at 3.3 % strength,"S. constellatus T29; Streptococcus constellatus, T29, M18, Galactose 3.3% w/w, read-out: Size of zone inhibition normalised to control, S. constellatus T29",22 mm
same,zone of inhibition at 5 % strength,"S. constellatus T29; Streptococcus constellatus, T29, M18, Galactose 5% w/w, read-out: Size of zone inhibition normalised to control, S. constellatus T29",17 mm
